Reference: publication PMC8163063 (Chemical Science, 2020)

Columns and labels:
[1] = test system: Bacillus subtilis; assay type: cell-based
[2] = test system: Escherichia coli; assay type: cell-based

In the case of “tachyplesin I (KWCFRVCYRGICYRRCR; not fully specified; Tachyplesin-1; UniProt P14213 24-40, looked up) [TPI-1]”, the “MIC against B. subtilis” value [1] is reported as 4 mg/L and the “MIC against E.coli” value [2] is reported as 4 mg/L.
